Measurements as given in patent US20250361268A1, “NOVEL ANTI-INFLAMMATORY PEPTIDE AND USE THEREOF” (NOVACELL TECHNOLOGY INC., priority 2022, published 2025).
Peptide text beside a SMILES is read from it.

Columns and labels:
FPR2 = biological target: T1, FPR2 (Homo sapiens, UniProt P25090); assay: Change in calcium activity by peptide (Fura-2) in RBL cells overexpressing FPR2; type: cell-based; settings: calcium activity (Fura-2), graded per Table 3, read-out: EC50 for [Ca^2+] FPR2
T1 construct: expressed in transfected cells; host or cells: RBL cells (RBL-FPR2)
T1 sequence (P25090 1-351): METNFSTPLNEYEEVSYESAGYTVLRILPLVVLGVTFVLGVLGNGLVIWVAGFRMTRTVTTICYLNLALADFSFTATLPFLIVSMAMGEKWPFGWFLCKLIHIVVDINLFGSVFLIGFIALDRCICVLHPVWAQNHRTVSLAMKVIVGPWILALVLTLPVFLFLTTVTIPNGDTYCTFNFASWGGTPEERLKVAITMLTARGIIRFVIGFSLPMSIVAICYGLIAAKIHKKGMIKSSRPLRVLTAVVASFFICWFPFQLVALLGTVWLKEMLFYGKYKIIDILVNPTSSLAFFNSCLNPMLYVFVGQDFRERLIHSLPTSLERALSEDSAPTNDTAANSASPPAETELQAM
In short: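 Rat basophilic leukemia cells overexpressing FPR2 loaded with Fura-2 (37 °C 1 h, then RT 30 min dark); peptides (0.5 mM stocks in water or 50% DMSO) diluted in HBSS + 20 mM HEPES and added on a plate reader, intracellular Ca2+ change recorded.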

FPR1 = biological target: T2, FPR1 (Homo sapiens, UniProt P21462); assay: Change in calcium activity by peptide, FPR1 activation effect; type: cell-based; settings: calcium activity (Fura-2), graded per Table 3, read-out: EC50 for [Ca^2+] FPR1
T2 sequence (P21462 1-350): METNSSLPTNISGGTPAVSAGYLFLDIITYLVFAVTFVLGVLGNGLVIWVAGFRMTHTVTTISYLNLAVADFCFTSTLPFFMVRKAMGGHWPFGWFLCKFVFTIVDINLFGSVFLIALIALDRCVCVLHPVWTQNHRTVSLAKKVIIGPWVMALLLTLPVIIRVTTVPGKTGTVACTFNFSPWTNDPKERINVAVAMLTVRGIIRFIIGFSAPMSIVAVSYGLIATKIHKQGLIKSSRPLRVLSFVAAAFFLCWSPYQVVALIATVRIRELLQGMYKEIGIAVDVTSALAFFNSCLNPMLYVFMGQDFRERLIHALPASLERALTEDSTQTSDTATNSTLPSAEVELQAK
In short: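 Cells plated at 3×10^5 per well the day before were loaded with Fura-2 for 1 h at 37 °C, then kept 30 min in the dark at room temperature. Peptide-evoked calcium changes were recorded on a FlexStation 3.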

| SMILES | EC50 (FPR2) [nM] | EC50 (FPR1) [nM] |
| --- | --- | --- |
| CCCCCCCC(=O)N[C@@H](Cc1c[nH]cn1)C(=O)N[C@@H](CCCCN)C(=O)N[C@@H](Cc1ccc(O)cc1)C(=O)N[C@@H](CCCCN)C(=O)N1CCC[C@H]1C(=O)N[C@H](CCSC)C(N)=O [Peptide 149] (HELM PEPTIDE1{[CCCCCCCC(=O)[*:2]].H.K.Y.K.P.[dM].[am]}$$$$V2.0) | < 10 | > 10000 |
| CCCCCCCC(=O)N[C@@H](CCSC)C(=O)N[C@@H](CCCNC(=N)N)C(=O)N[C@@H](Cc1ccc(O)cc1)C(=O)N[C@@H](Cc1c[nH]c2ccccc12)C(=O)N[C@@H](Cc1ccc(O)cc1)C(=O)N[C@H](CCSC)C(N)=O [Peptide 88] (HELM PEPTIDE1{[CCCCCCCC(=O)[*:2]].M.R.Y.W.Y.[dM].[am]}$$$$V2.0) | 11 to 100 | > 10000 |
| CSCC[C@@H](NC(=O)[C@H](Cc1ccc(O)cc1)NC(=O)[C@H](CCCCN)NC(=O)[C@H](Cc1ccc(O)cc1)NC(=O)[C@H](CCCCN)NC(=O)[C@H](Cc1c[nH]c2ccccc12)NC(=O)[C@H](CCCCN)NC(C)=O)C(N)=O [Peptide 36] (HELM PEPTIDE1{[ac].K.W.K.Y.K.Y.[dM].[am]}$$$$V2.0) | < 10 | > 10000 |
| CCCC(=O)N[C@@H](Cc1c[nH]cn1)C(=O)N[C@@H](Cc1c[nH]c2ccccc12)C(=O)N[C@@H](CCCCN)C(=O)N[C@@H](Cc1ccc(O)cc1)C(=O)N[C@@H](CCCCN)C(=O)N[C@@H](Cc1ccc(O)cc1)C(=O)N[C@H](CCSC)C(N)=O [Peptide 37] (HELM PEPTIDE1{[CCCC(=O)[*:2]].H.W.K.Y.K.Y.[dM].[am]}$$$$V2.0) | < 10 | > 10000 |
| CSCC[C@@H](NC(=O)[C@@H]1CCCN1C(=O)[C@H](CCCCN)NC(=O)[C@H](Cc1ccc(O)cc1)NC(=O)[C@H](CCCNC(=N)N)NC(=O)[C@H](Cc1c[nH]c2ccccc12)NC(=O)[C@@H](N)CCCNC(=N)N)C(N)=O [Peptide 74] (HELM PEPTIDE1{R.W.R.Y.K.P.[dM].[am]}$$$$V2.0) | < 10 | > 10000 |
| CSCC[C@H](NC(=O)[C@@H](N)CCCNC(=N)N)C(=O)N[C@@H](CCCNC(=N)N)C(=O)N[C@@H](Cc1ccc(O)cc1)C(=O)N[C@@H](Cc1c[nH]c2ccccc12)C(=O)N1CCC[C@H]1C(=O)N[C@H](CCSC)C(N)=O [Peptide 106] (HELM PEPTIDE1{R.M.R.Y.W.P.[dM].[am]}$$$$V2.0) | < 10 | 101 to 1000 |
| CSCC[C@H](NC(=O)[C@H](Cc1c[nH]cn1)NC(C)=O)C(=O)N[C@@H](CCCNC(=N)N)C(=O)N[C@@H](Cc1ccc(O)cc1)C(=O)N[C@@H](Cc1c[nH]c2ccccc12)C(=O)N[C@@H](Cc1ccc(O)cc1)C(=O)N[C@H](CCSC)C(N)=O [Peptide 92] (HELM PEPTIDE1{[ac].H.M.R.Y.W.Y.[dM].[am]}$$$$V2.0) | < 10 | > 10000 |
| CSCC[C@@H](NC(=O)[C@@H](NC(=O)[C@H](CCCCN)NC(=O)[C@H](Cc1ccc(O)cc1)NC(=O)[C@H](CCCCN)NC(=O)[C@H](Cc1c[nH]c2ccccc12)NC(=O)[C@H](CCCCN)NC(C)=O)C(C)C)C(N)=O [Peptide 4] (HELM PEPTIDE1{[ac].K.W.K.Y.K.V.[dM].[am]}$$$$V2.0) | < 10 | > 10000 |
| CC[C@H](C)[C@H](N)C(=O)N[C@@H](CCCCN)C(=O)N[C@@H](Cc1ccc(O)cc1)C(=O)N[C@@H](CCCCN)C(=O)N[C@H](C(=O)N[C@H](CCSC)C(N)=O)C(C)C [Peptide 134] (HELM PEPTIDE1{I.K.Y.K.V.[dM].[am]}$$$$V2.0) | < 10 | > 10000 |
| CSCC[C@@H](NC(=O)[C@@H](NC(=O)[C@H](CCCCN)NC(=O)[C@H](Cc1ccc(O)cc1)NC(=O)[C@H](CCCCN)NC(=O)[C@@H]1CCCN1C(C)=O)C(C)C)C(N)=O [Peptide 139] (HELM PEPTIDE1{[ac].P.K.Y.K.V.[dM].[am]}$$$$V2.0) | < 10 | > 10000 |
| CCCC(=O)N[C@@H](Cc1c[nH]cn1)C(=O)N[C@@H](CCSC)C(=O)N[C@@H](CCCNC(=N)N)C(=O)N[C@@H](Cc1ccc(O)cc1)C(=O)N[C@@H](CCCCN)C(=O)N[C@@H](Cc1ccc(O)cc1)C(=O)N[C@H](CCSC)C(N)=O [Peptide 45] (HELM PEPTIDE1{[CCCC(=O)[*:2]].H.M.R.Y.K.Y.[dM].[am]}$$$$V2.0) | < 10 | > 10000 |
| CCCC(=O)N[C@@H](Cc1c[nH]cn1)C(=O)N[C@@H](CCCCN)C(=O)N[C@@H](Cc1ccc(O)cc1)C(=O)N[C@@H](Cc1c[nH]c2ccccc12)C(=O)N1CCC[C@H]1C(=O)N[C@H](CCSC)C(N)=O [Peptide 151] (HELM PEPTIDE1{[CCCC(=O)[*:2]].H.K.Y.W.P.[dM].[am]}$$$$V2.0) | < 10 | 1000 to 10000 |
| CSCC[C@@H](NC(=O)[C@@H]1CCCN1C(=O)[C@H](Cc1ccc(O)cc1)NC(=O)[C@H](Cc1ccc(O)cc1)NC(=O)[C@H](CCCNC(=N)N)NC(=O)[C@H](Cc1c[nH]c2ccccc12)NC(=O)[C@H](CCCNC(=N)N)NC(C)=O)C(N)=O [Peptide 121] (HELM PEPTIDE1{[ac].R.W.R.Y.Y.P.[dM].[am]}$$$$V2.0) | < 10 | 101 to 1000 |
| CSCC[C@@H](NC(=O)[C@H](Cc1ccc(O)cc1)NC(=O)[C@H](Cc1ccccc1)NC(=O)[C@H](Cc1ccc(O)cc1)NC(=O)[C@H](CCCNC(=N)N)NC(=O)[C@H](Cc1c[nH]c2ccccc12)NC(=O)[C@@H](N)CCCNC(=N)N)C(N)=O [Peptide 156] (HELM PEPTIDE1{R.W.R.Y.F.Y.[dM].[am]}$$$$V2.0) | < 10 | > 10000 |
| CCCC(=O)N[C@@H](CCCCN)C(=O)N[C@@H](CCSC)C(=O)N[C@@H](CCCCN)C(=O)N[C@@H](Cc1ccc(O)cc1)C(=O)N[C@@H](CCCCN)C(=O)N[C@H](C(=O)N[C@H](CCSC)C(N)=O)C(C)C [Peptide 11] (HELM PEPTIDE1{[CCCC(=O)[*:2]].K.M.K.Y.K.V.[dM].[am]}$$$$V2.0) | < 10 | > 10000 |
| CSCC[C@@H](NC(=O)[C@H](Cc1ccc(O)cc1)NC(=O)[C@H](CCCCN)NC(=O)[C@H](Cc1ccc(O)cc1)NC(=O)[C@H](CCCNC(=N)N)NC(=O)[C@@H](N)Cc1c[nH]c2ccccc12)C(N)=O [Peptide 35] (HELM PEPTIDE1{W.R.Y.K.Y.[dM].[am]}$$$$V2.0) | < 10 | > 10000 |
| CC[C@H](C)[C@H](NC(=O)[C@H](CCCNC(=N)N)NC(=O)[C@H](Cc1ccc(O)cc1)NC(=O)[C@H](CCCNC(=N)N)NC(=O)[C@H](Cc1c[nH]c2ccccc12)NC(=O)[C@@H](N)CCCNC(=N)N)C(=O)N[C@H](CCSC)C(N)=O [Peptide 152] (HELM PEPTIDE1{R.W.R.Y.R.I.[dM].[am]}$$$$V2.0) | 11 to 100 | > 10000 |
| CSCC[C@H](NC(C)=O)C(=O)N[C@@H](CCCNC(=N)N)C(=O)N[C@@H](Cc1ccc(O)cc1)C(=O)N[C@@H](CCCCN)C(=O)N[C@H](C(=O)N[C@H](CCSC)C(N)=O)C(C)C [Peptide 14] (HELM PEPTIDE1{[ac].M.R.Y.K.V.[dM].[am]}$$$$V2.0) | < 10 | 1000 to 10000 |
| CCCCCCCC(=O)N1CCC[C@H]1C(=O)N[C@@H](CCCCN)C(=O)N[C@@H](Cc1ccc(O)cc1)C(=O)N[C@@H](CCCCN)C(=O)N[C@H](C(=O)N[C@H](CCSC)C(N)=O)C(C)C [Peptide 141] (HELM PEPTIDE1{[CCCCCCCC(=O)[*:2]].P.K.Y.K.V.[dM].[am]}$$$$V2.0) | < 10 | > 10000 |
| CSCC[C@@H](NC(=O)[C@@H](NC(=O)[C@H](CCCNC(=N)N)NC(=O)[C@H](Cc1ccc(O)cc1)NC(=O)[C@H](CCCNC(=N)N)NC(=O)[C@H](Cc1c[nH]c2ccccc12)NC(=O)[C@@H](N)CCCNC(=N)N)[C@@H](C)O)C(N)=O [Peptide 153] (HELM PEPTIDE1{R.W.R.Y.R.T.[dM].[am]}$$$$V2.0) | 11 to 100 | > 10000 |
| CSCC[C@H](NC(C)=O)C(=O)N[C@@H](CCCNC(=N)N)C(=O)N[C@@H](Cc1ccc(O)cc1)C(=O)N[C@@H](Cc1c[nH]c2ccccc12)C(=O)N1CCC[C@H]1C(=O)N[C@H](CCSC)C(N)=O [Peptide 111] (HELM PEPTIDE1{[ac].M.R.Y.W.P.[dM].[am]}$$$$V2.0) | < 10 | 1000 to 10000 |
| CSCC[C@@H](NC(=O)[C@@H](NC(=O)[C@H](CCCCN)NC(=O)[C@H](Cc1ccc(O)cc1)NC(=O)[C@H](CCCNC(=N)N)NC(=O)[C@@H](N)Cc1c[nH]c2ccccc12)C(C)C)C(N)=O [Peptide 3] (HELM PEPTIDE1{W.R.Y.K.V.[dM].[am]}$$$$V2.0) | < 10 | > 10000 |
| CCCCCCCC(=O)N[C@@H](CCCNC(=N)N)C(=O)N[C@@H](CCSC)C(=O)N[C@@H](CCCNC(=N)N)C(=O)N[C@@H](Cc1ccc(O)cc1)C(=O)N[C@@H](CCCCN)C(=O)N1CCC[C@H]1C(=O)N[C@H](CCSC)C(N)=O [Peptide 53] (HELM PEPTIDE1{[CCCCCCCC(=O)[*:2]].R.M.R.Y.K.P.[dM].[am]}$$$$V2.0) | < 10 | > 10000 |
